The assay deals with the enzyme urea (Canavalia ensiformis, UniProt P07374). In words: Effect of potential interfering substances on the pH response of the urea(bio)sensor. It counts as biochemical. The text has this: Furthermore, the effect of potential interfering substances, such as glucose, acetone, citric acid and sodium acetate, was investigated, see Table 2.
the enzyme urea, sequence (P07374 whole entry, looked up): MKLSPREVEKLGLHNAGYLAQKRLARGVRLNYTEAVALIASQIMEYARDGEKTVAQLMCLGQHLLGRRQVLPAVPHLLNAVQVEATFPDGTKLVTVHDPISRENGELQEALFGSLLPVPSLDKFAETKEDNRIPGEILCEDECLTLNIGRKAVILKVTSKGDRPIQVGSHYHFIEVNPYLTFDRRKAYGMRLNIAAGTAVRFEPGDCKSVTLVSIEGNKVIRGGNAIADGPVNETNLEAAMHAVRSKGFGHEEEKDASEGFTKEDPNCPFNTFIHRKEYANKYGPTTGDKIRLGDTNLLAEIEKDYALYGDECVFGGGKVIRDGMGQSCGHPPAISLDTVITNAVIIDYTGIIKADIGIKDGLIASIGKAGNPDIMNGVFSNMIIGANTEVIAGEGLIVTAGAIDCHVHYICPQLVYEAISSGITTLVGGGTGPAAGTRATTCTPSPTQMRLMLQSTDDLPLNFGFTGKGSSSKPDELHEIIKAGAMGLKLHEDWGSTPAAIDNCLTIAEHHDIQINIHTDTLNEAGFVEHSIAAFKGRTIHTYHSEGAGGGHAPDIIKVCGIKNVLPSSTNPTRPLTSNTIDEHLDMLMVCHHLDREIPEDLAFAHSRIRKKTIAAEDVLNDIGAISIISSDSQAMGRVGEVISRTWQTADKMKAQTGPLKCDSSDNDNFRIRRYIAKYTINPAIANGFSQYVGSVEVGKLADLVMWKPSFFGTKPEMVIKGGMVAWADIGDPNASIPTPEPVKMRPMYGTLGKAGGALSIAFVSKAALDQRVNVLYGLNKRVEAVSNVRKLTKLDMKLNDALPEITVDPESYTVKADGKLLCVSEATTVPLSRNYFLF

For the compound `O=S(=O)([O-])[O-].[Cu+2]` [Copper sulphate], the “Change in ΔpH (%)” value by setting is: (substance 1 mM in sample solution, no stabiliser) −38%; (substance 1 mM, value in parentheses, stabiliser (for instance EDTA) injected together with the enzyme) 0%; (substance 2 mM in sample solution, no stabiliser) −65%; (substance 2 mM, value in parentheses, stabiliser (for instance EDTA) injected together with the enzyme) 0%.
With `CC(=O)[O-].[Na+]` [Sodium acetate], the “Change in ΔpH (%)” value (substance 0.6 mM in sample solution, urea(bio)sensor, pH electrode) was determined as 0%.

The record behind these values is patent publication US20010023832A1, “Chemical sensor and use thereof” (priority 1995, published 2001).
